Results taken from publication PMC4522657, “Identification of a DYRK1A Inhibitor that Induces Degradation of the Target Kinase using Co-chaperone CDC37 fused with Luciferase nanoKAZ” (Scientific Reports, 2015).

Assays:
MAPKAPK3 = molecular target: T1, MAPKAPK3 (Homo sapiens, UniProt Q16644); test: Kinase panel, CaNDY 1 µM; type: biochemical; settings: CaNDY 1 µM relative to DMSO
T1 construct: purchased Carna Biosciences

RAF1_Cascade = molecular target: T2, RAF1_Cascade (Homo sapiens, UniProt P04049); test: Kinase panel, CaNDY 1 µM; type: biochemical; settings: CaNDY 1 µM relative to DMSO
T2 construct: purchased Carna Biosciences

[1] = molecular target: T3, interaction of CDC37-nanoKAZ with 3xFLAG-DYRK1A (Y319F/Y321F) (Homo sapiens, UniProt Q13627, Y319F/Y321F); test: CDC37-nanoKAZ binding assay (ELISA of the CDC37-nanoKAZ interaction) in 293T cells; type: cell-based
T3 construct: F2A peptide linking to EGFP (2A skipping releases EGFP; a 2A remnant may stay on DYRK1A) (C); expressed in transfected cells; host or cells: 293T cells stably expressing CDC37-nanoKAZ, transiently transfected with pcDNA5/FRT/TO 3xFLAG-DYRK1A (Y319F/Y321F)
Description: The cells were then treated with the indicated concentrations of small molecules for one hour. Cell lysates were added to FLAG antibody-coated 96-well plates and luminescence intensities were measured. The amount of bound 3xFLAG-DYRK1A was measured using a HRP-conjugated antibody against FLAG. The relative Imax for CDC37-nanoKAZ was normalized using the amount of bound protein.
Stable cell lines transfected with expression vectors for 3xFLAG-tagged DYRK family kinases and its mutants were lysed in ice-cold HENG buffer (50 mM HEPES-KOH, pH 7.9, 150 mM NaCl, 20 mM Na2MoO4, 2 mM EDTA, 5% Glycerol, 0.5% TritonX-100) containing protease inhibitor cocktail (Nacalai Tesque) on ice. […] The wells were wash three times with ice-cold HENG buffer and then a luminescence assay was performed.
The luminescence activity of the cell lysates was determined using a Centro LB 960 Microplate Luminometer (Berthold Technologies, Bad Wildbad, Germany). A reaction mixture containing bis-coelenterazine (final concentration of 0.1–1 μg/100 μL) in PBS containing 0.02% Tween20 and 20 mM EDTA was injected. The luminescence intensity was recorded at 0.1 s intervals for 10 s or 10 min. The maximum luminescence intensity (Imax), represented in relative luminescence units (rlu), was used in the study.
After measuring the luminescence intensities, the wells were washed three times with HENG buffer, and incubated with HRP-conjugated anti-FLAG antibody diluted with PBS containing […] and 2% fetal bovine serum at 37 °C for one hour. After extensive washing, […] Super Sensitive One Component HRP Microwell Substrate (SurModics, Eden Prairie, MN, USA) was added into the well and the reaction was stopped with sulfuric acid. Absorbance at 450 nm was measured with ARVO X5 (PerkinElmer). The relative amount of protein bound on the well was estimated from the absorbance.
In Supporting Figure S1a, the values of Imax are shown in kinetics plots. In Figs 2c,e, 3c, S1d, S3, and S4, the relative luminescence intensities are shown as the fold-change in the Imax values of the samples relative to Imax with EGFP. In Figs 4, 5a,c and 6c, the relative luminescence intensities were normalized to the amount of the bound 3xFLAG-DYRK1A mutant and calculated as the fold-change relative to the value at 0 μM of the compounds.
Small molecules in our original synthetic chemical library, including unpublished small molecule inhibitors of DYRK1A and its structural derivatives (data not shown), were added to the 96-well plates containing the transfected cells at a final concentration of 4 μM. The cells were then processed as described above.

CK2α2/β = molecular target: T4, CK2α2/β (Homo sapiens, UniProt P19784); test: Kinase panel, CaNDY 1 µM; type: biochemical; settings: CaNDY 1 µM relative to DMSO
T4 construct: purchased Carna Biosciences
T4 sequence (P19784 whole entry): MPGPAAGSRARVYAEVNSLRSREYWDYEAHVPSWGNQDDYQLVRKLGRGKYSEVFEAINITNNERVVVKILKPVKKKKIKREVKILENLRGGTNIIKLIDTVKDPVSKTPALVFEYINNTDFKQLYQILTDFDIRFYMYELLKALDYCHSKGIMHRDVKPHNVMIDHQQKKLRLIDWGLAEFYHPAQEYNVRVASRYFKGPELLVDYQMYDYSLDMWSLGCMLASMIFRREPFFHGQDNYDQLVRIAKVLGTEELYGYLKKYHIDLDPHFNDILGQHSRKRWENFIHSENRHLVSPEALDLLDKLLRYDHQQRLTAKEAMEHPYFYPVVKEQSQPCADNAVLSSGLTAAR
T4 sequence (P67870 whole entry partner): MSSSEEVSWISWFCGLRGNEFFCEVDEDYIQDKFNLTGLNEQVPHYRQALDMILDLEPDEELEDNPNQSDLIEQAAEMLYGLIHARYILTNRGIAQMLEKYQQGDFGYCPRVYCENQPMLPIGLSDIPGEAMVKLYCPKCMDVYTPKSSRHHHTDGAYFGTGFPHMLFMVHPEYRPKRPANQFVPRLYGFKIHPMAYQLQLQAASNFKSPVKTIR

PLK1 = molecular target: T5, PLK1 (Homo sapiens, UniProt P53350); test: Kinase panel, CaNDY 1 µM; type: biochemical; settings: CaNDY 1 µM relative to DMSO
T5 construct: purchased Carna Biosciences
T5 sequence (P53350 whole entry): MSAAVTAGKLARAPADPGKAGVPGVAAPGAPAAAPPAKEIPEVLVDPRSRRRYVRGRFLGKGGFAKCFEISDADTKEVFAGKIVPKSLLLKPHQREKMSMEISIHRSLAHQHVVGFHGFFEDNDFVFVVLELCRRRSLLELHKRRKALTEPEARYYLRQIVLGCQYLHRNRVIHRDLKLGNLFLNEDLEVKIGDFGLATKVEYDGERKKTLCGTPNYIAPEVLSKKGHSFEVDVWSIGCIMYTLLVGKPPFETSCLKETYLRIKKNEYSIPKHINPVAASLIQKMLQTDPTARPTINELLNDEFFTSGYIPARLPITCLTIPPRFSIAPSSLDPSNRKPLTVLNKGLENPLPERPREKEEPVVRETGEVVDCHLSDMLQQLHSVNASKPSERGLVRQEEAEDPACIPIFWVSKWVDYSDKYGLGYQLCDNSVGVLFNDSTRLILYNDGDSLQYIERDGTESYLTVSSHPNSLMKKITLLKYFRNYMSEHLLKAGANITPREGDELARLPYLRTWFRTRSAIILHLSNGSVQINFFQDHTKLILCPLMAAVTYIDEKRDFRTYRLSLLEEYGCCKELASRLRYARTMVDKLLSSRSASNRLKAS

PDHK4 = molecular target: T6, PDHK4 (Homo sapiens, UniProt Q16654); test: Kinase panel, CaNDY 1 µM; type: biochemical; settings: CaNDY 1 µM relative to DMSO
T6 construct: purchased Carna Biosciences
T6 sequence (Q16654 whole entry): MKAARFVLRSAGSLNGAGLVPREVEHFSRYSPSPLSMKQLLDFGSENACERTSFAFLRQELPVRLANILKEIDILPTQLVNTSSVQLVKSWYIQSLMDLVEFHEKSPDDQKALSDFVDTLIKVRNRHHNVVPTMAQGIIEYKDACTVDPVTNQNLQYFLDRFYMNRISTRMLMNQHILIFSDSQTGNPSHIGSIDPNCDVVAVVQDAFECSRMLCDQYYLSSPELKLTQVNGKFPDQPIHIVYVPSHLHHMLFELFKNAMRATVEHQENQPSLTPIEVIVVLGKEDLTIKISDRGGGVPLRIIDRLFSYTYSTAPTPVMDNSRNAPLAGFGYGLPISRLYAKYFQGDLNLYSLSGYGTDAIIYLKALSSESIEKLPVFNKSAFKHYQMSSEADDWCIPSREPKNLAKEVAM

PKCβ2 = molecular target: T7, PKCβ2 (Homo sapiens, UniProt P05771); test: Kinase panel, CaNDY 1 µM; type: biochemical; settings: CaNDY 1 µM relative to DMSO
T7 construct: purchased Carna Biosciences
T7 sequence (P05771 1-673 isoform P05771-2): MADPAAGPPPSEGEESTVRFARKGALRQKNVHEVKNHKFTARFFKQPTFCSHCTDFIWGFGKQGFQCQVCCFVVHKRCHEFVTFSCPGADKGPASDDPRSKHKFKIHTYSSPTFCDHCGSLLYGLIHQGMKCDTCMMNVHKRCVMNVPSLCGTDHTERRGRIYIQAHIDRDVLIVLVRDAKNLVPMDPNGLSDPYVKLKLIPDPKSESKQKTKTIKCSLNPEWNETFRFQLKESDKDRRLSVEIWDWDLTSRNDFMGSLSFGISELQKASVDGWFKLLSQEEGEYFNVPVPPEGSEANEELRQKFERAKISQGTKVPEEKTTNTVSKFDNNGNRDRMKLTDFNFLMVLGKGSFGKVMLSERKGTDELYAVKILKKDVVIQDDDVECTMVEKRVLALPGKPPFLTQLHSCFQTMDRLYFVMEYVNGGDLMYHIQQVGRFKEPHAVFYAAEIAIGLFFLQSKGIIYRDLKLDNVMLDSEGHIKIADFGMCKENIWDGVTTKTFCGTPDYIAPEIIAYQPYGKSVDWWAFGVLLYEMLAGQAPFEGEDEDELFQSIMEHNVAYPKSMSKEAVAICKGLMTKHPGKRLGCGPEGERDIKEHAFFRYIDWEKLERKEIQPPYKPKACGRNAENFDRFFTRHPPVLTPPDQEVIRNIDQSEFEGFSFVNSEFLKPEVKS

FGFR4 = molecular target: T8, FGFR4 (Homo sapiens, UniProt P22455); test: Kinase panel, CaNDY 1 µM; type: biochemical; settings: CaNDY 1 µM relative to DMSO
T8 construct: purchased Carna Biosciences

HGK = molecular target: T9, HGK (Homo sapiens, UniProt O95819); test: Kinase panel, CaNDY 1 µM; type: biochemical; settings: CaNDY 1 µM relative to DMSO
T9 construct: purchased Carna Biosciences
T9 sequence (O95819 whole entry): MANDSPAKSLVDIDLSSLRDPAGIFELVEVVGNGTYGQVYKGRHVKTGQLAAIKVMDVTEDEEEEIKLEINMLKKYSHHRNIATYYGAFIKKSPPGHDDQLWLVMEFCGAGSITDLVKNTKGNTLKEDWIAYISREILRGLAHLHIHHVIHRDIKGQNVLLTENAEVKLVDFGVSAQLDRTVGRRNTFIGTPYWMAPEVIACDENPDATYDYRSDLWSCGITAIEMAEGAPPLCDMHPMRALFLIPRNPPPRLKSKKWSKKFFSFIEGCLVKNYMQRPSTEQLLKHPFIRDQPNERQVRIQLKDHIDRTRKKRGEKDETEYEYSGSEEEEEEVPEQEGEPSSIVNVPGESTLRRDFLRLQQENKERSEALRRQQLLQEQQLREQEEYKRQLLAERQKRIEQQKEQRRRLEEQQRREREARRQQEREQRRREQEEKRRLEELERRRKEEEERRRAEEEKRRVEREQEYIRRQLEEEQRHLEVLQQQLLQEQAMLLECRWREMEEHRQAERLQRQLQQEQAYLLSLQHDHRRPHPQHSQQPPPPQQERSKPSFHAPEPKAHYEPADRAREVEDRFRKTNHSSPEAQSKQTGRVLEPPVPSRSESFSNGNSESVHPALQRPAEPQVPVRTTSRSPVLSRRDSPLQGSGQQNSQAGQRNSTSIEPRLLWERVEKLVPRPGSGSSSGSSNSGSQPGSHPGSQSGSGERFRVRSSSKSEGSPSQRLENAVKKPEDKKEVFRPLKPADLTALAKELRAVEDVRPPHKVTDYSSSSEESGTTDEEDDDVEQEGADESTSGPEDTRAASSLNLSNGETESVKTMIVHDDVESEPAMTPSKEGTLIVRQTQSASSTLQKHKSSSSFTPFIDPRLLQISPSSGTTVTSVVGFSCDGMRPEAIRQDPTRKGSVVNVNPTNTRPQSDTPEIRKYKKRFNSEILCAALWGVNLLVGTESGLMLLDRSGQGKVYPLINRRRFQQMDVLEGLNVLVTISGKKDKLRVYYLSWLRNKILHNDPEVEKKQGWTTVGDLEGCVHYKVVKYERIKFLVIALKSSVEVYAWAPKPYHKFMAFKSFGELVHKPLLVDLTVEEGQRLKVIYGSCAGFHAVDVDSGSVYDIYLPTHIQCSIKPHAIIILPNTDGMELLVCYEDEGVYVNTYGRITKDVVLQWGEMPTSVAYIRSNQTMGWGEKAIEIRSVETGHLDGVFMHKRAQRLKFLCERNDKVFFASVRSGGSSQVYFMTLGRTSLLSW

RSK1 = molecular target: T10, RSK1 (Homo sapiens, UniProt Q15418); test: Kinase panel, CaNDY 1 µM; type: biochemical; settings: CaNDY 1 µM relative to DMSO
T10 construct: purchased Carna Biosciences
T10 sequence (Q15418 whole entry): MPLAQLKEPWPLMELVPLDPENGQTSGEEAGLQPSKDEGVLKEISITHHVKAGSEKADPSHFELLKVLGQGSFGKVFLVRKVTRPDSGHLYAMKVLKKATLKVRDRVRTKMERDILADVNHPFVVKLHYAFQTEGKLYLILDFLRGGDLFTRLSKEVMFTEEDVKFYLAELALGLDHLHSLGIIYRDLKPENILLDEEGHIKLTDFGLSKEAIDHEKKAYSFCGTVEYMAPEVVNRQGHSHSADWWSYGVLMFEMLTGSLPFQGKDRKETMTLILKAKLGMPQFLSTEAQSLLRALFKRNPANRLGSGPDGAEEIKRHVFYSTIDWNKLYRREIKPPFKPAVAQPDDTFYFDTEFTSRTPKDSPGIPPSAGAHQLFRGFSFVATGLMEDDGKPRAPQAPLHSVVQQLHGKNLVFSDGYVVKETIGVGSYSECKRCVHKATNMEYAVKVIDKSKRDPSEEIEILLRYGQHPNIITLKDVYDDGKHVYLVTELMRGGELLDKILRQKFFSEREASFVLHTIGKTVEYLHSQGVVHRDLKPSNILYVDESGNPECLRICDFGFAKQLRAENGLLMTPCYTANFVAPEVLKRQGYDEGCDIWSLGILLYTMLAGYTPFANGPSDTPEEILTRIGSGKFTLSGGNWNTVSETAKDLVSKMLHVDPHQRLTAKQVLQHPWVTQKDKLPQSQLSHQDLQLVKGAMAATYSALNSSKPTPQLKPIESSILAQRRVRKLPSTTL

FYN = molecular target: T11, FYN (Homo sapiens, UniProt P06241); test: Kinase panel, CaNDY 1 µM; type: biochemical; settings: CaNDY 1 µM relative to DMSO
T11 construct: purchased Carna Biosciences

PLK2 = molecular target: T12, PLK2 (Homo sapiens, UniProt Q9NYY3); test: Kinase panel, CaNDY 1 µM; type: biochemical; settings: CaNDY 1 µM relative to DMSO
T12 construct: purchased Carna Biosciences

3xFLAG-DYRK1A = molecular target: T13, 3xFLAG-DYRK1A (Homo sapiens, UniProt Q13627); test: Western blot of 3xFLAG-DYRK1A level in transfected 293T cells; type: cell-based; settings: CaNDY 2 μM, 8 h, compared with DMSO
T13 construct: F2A peptide linking to EGFP (2A skipping releases EGFP; a 2A remnant may stay on DYRK1A) (C); expressed in transfected cells; host or cells: 293T cells, transient
Description: To investigate whether DYRK1A is a client kinase of the CDC37/HSP90 system, we used a HSP90 inhibitor, ganetespib. 293T cells were transiently transfected with an expression vector of 3xFLAG-tagged DYRK1A (3xFLAG-DYRK1A). At 24 h after transfection, the cells were treated with ganetespib for the indicated time (0–8 h). Total cell lysates were collected and subjected to SDS-PAGE followed by Western blot analysis.
Figure 1 Ganetespib, a HSP90 inhibitor, decreases the DYRK1A protein level. 293T cells were transiently transfected with an expression vector for 3xFLAG-DYRK1A. At 24 h after transfection, the cells were treated with ganetespib (100 nM) and collected 0 and 8 h after treatment. Total cell lysates were subjected to SDS-PAGE followed by Western blot analysis using antibodies against FLAG and GAPDH. In the control group (DMSO), expression of 3xFLAG-DYRK1A increased at 8 h compared to 0 h, and ganetespib suppressed this increase of 3xFLAG-DYRK1A.
Western blot analysis was performed using the antibodies described above. In brief, total cell lysates were separated by SDS-PAGE (5–20% gels; ATTO, Tokyo, Japan) under reducing conditions and then transferred to a PVDF membrane (PALL, SP, Brazil). Antibody reactions were performed with Can Get Signal® Immunoreaction Enhancer Solution (Toyobo). Peroxidase activities on the membrane were visualized with ECL Western Blotting Detection Reagents (GE Healthcare) or ImmunoStar® LD (Wako Pure Chemical Industries, Osaka, Japan), and a ChemiDoc^TM MP Imaging System (Bio-Rad, Hercules, CA, USA).

MAP3K4_Cascade = molecular target: T14, MAP3K4_Cascade (Homo sapiens, UniProt Q9Y6R4); test: Kinase panel, CaNDY 1 µM; type: biochemical; settings: CaNDY 1 µM relative to DMSO
T14 construct: purchased Carna Biosciences

T1 sequence (Q16644 whole entry): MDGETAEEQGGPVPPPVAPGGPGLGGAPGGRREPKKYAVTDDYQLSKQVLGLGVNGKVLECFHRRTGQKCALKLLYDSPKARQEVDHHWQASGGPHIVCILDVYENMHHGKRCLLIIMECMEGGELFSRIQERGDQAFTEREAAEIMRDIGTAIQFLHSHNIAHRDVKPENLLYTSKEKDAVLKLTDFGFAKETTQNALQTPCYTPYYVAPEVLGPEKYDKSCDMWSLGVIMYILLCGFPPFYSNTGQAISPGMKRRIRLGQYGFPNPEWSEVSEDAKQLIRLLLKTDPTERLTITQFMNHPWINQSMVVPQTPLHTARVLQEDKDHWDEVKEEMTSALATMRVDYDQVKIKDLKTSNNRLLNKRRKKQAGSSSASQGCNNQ

[H]/N=C1/NC(=O)C(=Cc2ccc3c(c2)CCO3)S1 [CaNDY, (Z)-5-[(2,3-dihydrobenzofuran-5-yl)methylene]-2-iminothiazolidin-4-one]
remaining activity at 1 µM (MAPKAPK3): 103% | remaining activity at 1 µM (RAF1_Cascade): 82.3% | EC50 ([1]; 293T cells stably expressing CDC37-nanoKAZ, treated one hour, read-out: EC50, decrease of relative luminescence intensity): 409 nM | relative luminescence intensity in library screen ([1]; compounds at 4 μM, 253 compounds): decreased the luminescence intensity to the lowest level | remaining activity at 1 µM (CK2α2/β): 23.4% | remaining activity at 1 µM (PLK1): 99.2% | remaining activity at 1 µM (PDHK4): 92% | remaining activity at 1 µM (PKCβ2): 88.2% | remaining activity at 1 µM (FGFR4): 107% | remaining activity at 1 µM (HGK): 42.1% | remaining activity at 1 µM (RSK1): 91.2% | remaining activity at 1 µM (FYN): 102% | %Activity (PLK2): 95.9% | 3xFLAG-DYRK1A level (3xFLAG-DYRK1A): decreased the 3xFLAG-DYRK1A level | remaining activity at 1 µM (MAP3K4_Cascade): 101%
